Laboratory results reported in US12295936B2, “Immunomodulating urea azalides” (Zoetis Services LLC, priority 2020, dated 2025).
“Also recorded” adds a separate entry of the source.

Assays:
[1] = system: E. coli and Salmonella isolates; experiment: Ames mutagenicity test; type: cell-based; settings: 1-5000 μg/plate, plate incorporation method
Protocol: In an Ames mutagenicity test, Example H-91 (1-5000 μg/plate; using the plate incorporation method and a standard panel of bacterial (E. coli and Salmonella isolates) was negative (non-mutagenic).

IL-1β = experiment: LPS-stimulated whole bovine blood assay, MSD cytokine detection; type: cell-based; settings: for IC50: Bos taurus, LPS-stimulated whole bovine blood, * = enhanced response at concentration indicating potential cytotoxicity
[2] = system: bovine respiratory disease (BRD); experiment: Natural bovine respiratory disease (field) studies; type: in vivo, cattle; settings: for Treatment success: saline 43.0%; for Percent failure (treatment failure): 14-day observation, beef calves at moderate risk for BRD, saline 43%
IL-36RA = IL-36RA change during natural infection bovine studies; type: in vivo, cattle; settings: H-91 0.5 mg/kg, H-11 0.1 mg/kg
Protocol: Intensive sample collection was conducted over a 96-hour period in a subset of cattle treated with Example H-91 (0.5 mg/kg) or H-11 (0.1 mg/kg) in the natural bovine infection studies. […] The compounds of the invention have shown an up-regulation of IL-36RA, which then binds to IL-36R limiting the pro-inflammatory response of IL-36. In addition, the IL-8 levels from one of the natural infection studies with Example H-91, increased 270% over the course of the study for control animals. In contrast, the IL-8 levels in animals dosed with Example H-91 decreased by about 15%.

CD163 = CD163 expression by flow cytometry, blood of treated/challenged cattle; settings: blood macrophages
[3] = system: M. haemolytica (OSU-012103-BHI); experiment: In vivo bovine M. haemolytica intratracheal lung infection challenge model; settings: for Significance to T01, mortality: p≤0.2; for Mortality/Euthanization No, % / Mortality/Euthanization No, Number: surviving animals
P. multocida = experiment: Murine P. multocida intranasal challenge study with lung tissue RNA sequence analysis; type: in vivo, mice
Protocol: In one murine P. multocida intranasal challenge study, mice were administered tulathromycin (16 mg/kg; T02), M9 (32 mg/kg; T03), or ceftiofur (9 mg/kg; T04) by subcutaneous injection 18 hours after bacterial challenge (5×10^3 CFU/mouse) for lung tissue RNA sequence analysis. Survival at Day 7 was about 80%, 50%, and 90% for T02, T03, and T04, respectively, compared to placebo at 0%. Differential gene expression from total lung tissue RNA sequence analysis indicated at least 226 unique genes were up or down regulated (with significance) for T03. Output from ingenuity pathway analysis of these unique genes predicted major upstream regulators of the involved pathways. Data was analyzed based on the number of genes being modulated in the same direction that were associated with a given upstream regulator. An activation z-score of 2 or greater is considered significant and the direction change is indicated by +(activated) or − (inhibited). The top 5 pathways included: IL-9 signaling, glucocorticoid receptor signaling, prolactin signaling, JAK STAT signaling, and IL-17 signaling. The top 6 upstream regulators (activation z-score) included: lipopolysaccharide (−6.725), TNF (−4.669), IFNG (−5.759), IL-1β (−5.947), STAT1 (−2.787), and poly rl:rC-RNA (−5.289). Even though this study was run in the murine model, the top upstream regulators identified as being modulated by M9 include an almost ubiquitous overlap with the pathways identified in the natural disease study as being key mediators in BRD, and therefore is modulating highly relevant pathways in BRD pathobiology.

[4] = Table 7 study, T02: 0.5 mg/kg subcutaneous
[5] = Table 7 study, T03: 2.5 mg/kg subcutaneous
[6] = M9 32 mg/kg (T03), ingenuity pathway analysis, − = inhibited
[7] = Table 7 study, T04: 10 mg/kg subcutaneous, positive control
[8] = Table 9 study, T05: 10 mg/kg subcutaneous, positive control

CCCNC[C@]1(O)[C@H](C)O[C@@H](O[C@H]2[C@H](C)[C@@H](O[C@@H]3O[C@H](C)C[C@H](N(C)C(=O)Nc4ccccc4)[C@H]3O)[C@](C)(O)C[C@@H](C)CN[C@H](C)[C@@H](O)[C@](C)(O)[C@@H](CC)OC(=O)[C@@H]2C)C[C@@]1(C)OC [Example H-91, 1-((2S,3R,4S,6R)-2-(((2R,3S,4R,5R,8R,10R,11R,12S,13S,14R)-2-ethyl-3,4,10-trihydroxy-13-(((2R,4R,5S,6S)-5-hydroxy-4-methoxy-4,6-dimethyl-5-((propylamino)methyl)tetrahydro-2H-pyran-2-yl)oxy)-3,5,8,10,12,14-hexamethyl-15-oxo-1-oxa-6-azacyclopentadecan-11-yl)oxy)-3-hydroxy-6-methyltetrahydro-2H-pyran-4-yl)-1-methyl-3-phenylurea]
Ames mutagenicity test [1]: negative; also recorded: non-mutagenic
IC50 (IL-1β): 103 µM
IL-1β OS of LPS (IL-1β; overstimulation of IL-1β, LPS-stimulated bovine whole blood): 130 µM
Treatment success ([2]; 0.5 mg/kg (T02) subcutaneous Day 0, natural field study to Day 7): 57.9%
Treatment success ([2]; 2.5 mg/kg (T03) subcutaneous Day 0, natural field study to Day 7): 43.9%
IL-36RA concentration relative to the baseline concentration after the elevation (IL-36RA; after roughly 8 hours): −55%
increase in IL-36RA compared to baseline (IL-36RA; within 1 hour, FIG. 5): about 275%
CD163 expression in treated cattle (CD163): suppressed; also recorded: reduction; also recorded: downregulated
Significance at .20 level to T01, lung lesions ([3]; Table 6 study, T02: 0.5 mg/kg subcutaneous): Yes
Significance at .20 level to T01, lung lesions ([3]; Table 6 study, T03: 2.5 mg/kg subcutaneous): Yes
Mortality/Euthanization Yes, % [3, 4]: 0%
Mortality/Euthanization Yes, Number [3, 4]: 0
Significance to T01, mortality [3, 4]: Yes
Mortality/Euthanization No, % [3, 4]: 100%
Mortality/Euthanization No, Number [3, 4]: 23
Mortality/Euthanization Yes, % [3, 5]: 8.3%
Mortality/Euthanization Yes, Number [3, 5]: 2
Significance to T01, mortality [3, 5]: Yes
Mortality/Euthanization No, % [3, 5]: 91.7%
Mortality/Euthanization No, Number [3, 5]: 22

CCCNC[C@]1(O)[C@H](C)O[C@@H](O[C@H]2[C@H](C)[C@@H](O[C@@H]3O[C@H](C)C[C@H](NC)[C@H]3O)[C@](C)(O)C[C@@H](C)CN[C@H](C)[C@@H](O)[C@](C)(O)[C@@H](CC)OC(=O)[C@@H]2C)C[C@@]1(C)OC [Example M9, (2R,3S,4R,5R,8R,10R,11R,12S,13S,14R)-2-ethyl-3,4,10-trihydroxy-13-(((2R,4R,5S,6S)-5-hydroxy-4-methoxy-4,6-dimethyl-5-((propylamino)methyl)-tetrahydro-2H-pyran-2-yl)oxy)-11-(((2S,3R,4S,6R)-3-hydroxy-6-methyl-4-(methylamino)tetrahydro-2H-pyran-2-yl)oxy)-3,5,8,10,12,14-hexamethyl-1-oxa-6-azacyclopentadecan-15-one, reference compound]
IC50 (IL-1β): ~250 µM
unique genes up or down regulated (with significance), total lung tissue RNA sequence analysis (P. multocida; M9 32 mg/kg (T03)): at least 226
activation z-score, upstream regulator IFNG (P. multocida; [6]): −5.759
activation z-score, upstream regulator IL-1β (P. multocida; [6]): −5.947
activation z-score, upstream regulator STAT1 (P. multocida; [6]): −2.787
activation z-score, upstream regulator TNF (P. multocida; [6]): −4.669
activation z-score, upstream regulator lipopolysaccharide (P. multocida; [6]): −6.725
activation z-score, upstream regulator poly rl:rC-RNA (P. multocida; [6]): −5.289
Survival at Day 7 (P. multocida; subcutaneous 18 hours after challenge (5×10^3 CFU/mouse): tulathromycin 16 mg/kg, M9 32 mg/kg, ceftiofur 9 mg/kg, placebo 0%): ~50%
Percent failure (treatment failure) ([2]; 5 mg/kg (T02)): 19.3%
Percent failure (treatment failure) ([2]; 10 mg/kg (T03)): 8.8%
CD163 expression in treated cattle (CD163): suppressed; also recorded: mitigates; also recorded: downregulated
Mortality ([3]; 10 mg/kg, separate study, saline control 38.9%): 13%
Mortality ([3]; T02: 10 mg/kg subcutaneous Day -1, M. haemolytica challenge Day 0, 6 animals): 1/6
Mortality ([3]; T04: 10 mg/kg subcutaneous Day -1, No challenge, 6 animals): 0/6
Significance at .20 level to T01, lung lesions ([3]; Table 6 study, T04: 10 mg/kg subcutaneous): Yes
Mortality/Euthanization Yes, % [3, 7]: 12.5%
Mortality/Euthanization Yes, Number [3, 7]: 3
Mortality/Euthanization No, % [3, 7]: 87.5%
Mortality/Euthanization No, Number [3, 7]: 21
Significance to T01, mortality ([3]; Table 7 study, T04: 10 mg/kg subcutaneous): Yes
Significance at .20 level to T01, lung lesions ([3]; Table 8 study, T05: 10 mg/kg subcutaneous): yes
Mortality/Euthanization Yes, % [3, 8]: 13.0%
Mortality/Euthanization Yes, Number [3, 8]: 3
Mortality/Euthanization No, % [3, 8]: 87.0%
Mortality/Euthanization No, Number [3, 8]: 20
Significance to T01, mortality ([3]; Table 9 study, T05: 10 mg/kg subcutaneous): Yes
